Reference: the supplement of paper PMC10733146

What was measured:
Assay in all cases: viability relative to DMSO control (fraction); higher = less drug effect (more viable cells)
Conditions in all cases: 48 h
[1] = test system: primary MCL patient cells (S041)
Procedure, shortened: (§1)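 Cells were incubated for 48 h at 37 °C and 5% CO2 in RPMI-1640 with penicillin/streptomycin, L-glutamine and human serum, at 4 × 10^4 cells per well in 384-well plates with compounds pre-plated at five concentrations, one well each. These were primary mononuclear tumour cells, fresh or cryopreserved, Ficoll-isolated from blood or bone marrow or obtained from processed lymph node. Viability values are CellTiter-Glo luminescence relative to the median of 16 inner DMSO wells.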

[2] = test system: primary AML patient cells (S011)
Procedure, shortened: as §1

[3] = test system: primary AML patient cells (S055)
Procedure, shortened: as §1

[4] = test system: primary T-NHL patient cells (S058)
Procedure, shortened: as §1

[5] = test system: primary B-PLL patient cells (S016)
Procedure, shortened: as §1

[6] = test system: primary T-PLL patient cells (S008)
Procedure, shortened: as §1

[7] = test system: primary AML patient cells (S009)
Procedure, shortened: as §1

[8] = test system: primary FL patient cells (S087)
Procedure, shortened: as §1

[9] = test system: primary AML patient cells (S060)
Procedure, shortened: as §1

[10] = test system: primary AML patient cells (S081)
Procedure, shortened: as §1

[11] = test system: primary MCL patient cells (S063)
Procedure, shortened: as §1

[12] = test system: primary AML patient cells (S006)
Procedure, shortened: as §1

[13] = test system: primary ALL patient cells (S088)
Procedure, shortened: as §1

[14] = test system: primary DLBCL patient cells (S076)
Procedure, shortened: as §1

[15] = test system: primary DLBCL patient cells (S049)
Procedure, shortened: as §1

[16] = test system: primary DLBCL patient cells (S082)
Procedure, shortened: as §1

[17] = test system: primary AML patient cells (S021)
Procedure, shortened: as §1

CS(=O)(=O)c1ccc(C(=O)Nc2ccc(Cl)c(-c3ccccn3)c2)c(Cl)c1 [Vismodegib]
viability ([1]; 0.024 µM): 0.934 | viability ([1]; 0.12 µM): 0.973 | viability ([1]; 0.6 µM): 0.935 | viability ([1]; 3 µM): 0.969 | viability ([1]; 15 µM): 0.984 | viability ([2]; 0.024 µM): 0.771 | viability ([2]; 0.12 µM): 0.871 | viability ([2]; 0.6 µM): 1.11 | viability ([2]; 3 µM): 0.914 | viability ([2]; 15 µM): 0.92 | viability ([3]; 0.024 µM): 0.914 | viability ([3]; 0.12 µM): 0.927 | viability ([3]; 0.6 µM): 0.931 | viability ([3]; 3 µM): 0.925 | viability ([3]; 15 µM): 0.964 | viability ([4]; 0.024 µM): 0.913 | viability ([4]; 0.12 µM): 0.978 | viability ([4]; 0.6 µM): 0.953 | viability ([4]; 3 µM): 0.926 | viability ([4]; 15 µM): 1.01 | viability ([5]; 0.024 µM): 0.862 | viability ([5]; 0.12 µM): 0.917 | viability ([5]; 0.6 µM): 0.921 | viability ([5]; 3 µM): 0.857 | viability ([5]; 15 µM): 0.92 | viability ([6]; 0.024 µM): 0.941 | viability ([6]; 0.12 µM): 0.932 | viability ([6]; 0.6 µM): 0.983 | viability ([6]; 3 µM): 0.938 | viability ([6]; 15 µM): 0.926 | viability ([7]; 0.024 µM): 0.913 | viability ([7]; 0.12 µM): 0.918 | viability ([7]; 0.6 µM): 0.944 | viability ([7]; 3 µM): 0.942 | viability ([7]; 15 µM): 0.939 | viability ([8]; 0.024 µM): 0.918 | viability ([8]; 0.12 µM): 0.898 | viability ([8]; 0.6 µM): 0.914 | viability ([8]; 3 µM): 0.92 | viability ([8]; 15 µM): 0.929 | viability ([9]; 0.024 µM): 0.945 | viability ([9]; 0.12 µM): 0.966 | viability ([9]; 0.6 µM): 0.97 | viability ([9]; 3 µM): 0.971 | viability ([9]; 15 µM): 0.997 | viability ([10]; 0.024 µM): 0.926 | viability ([10]; 0.12 µM): 0.946 | viability ([10]; 0.6 µM): 0.915 | viability ([10]; 3 µM): 0.923 | viability ([10]; 15 µM): 1 | viability ([11]; 0.024 µM): 0.93 | viability ([11]; 0.12 µM): 0.956 | viability ([11]; 0.6 µM): 0.911 | viability ([11]; 3 µM): 0.925 | viability ([11]; 15 µM): 0.921 | viability ([12]; 0.024 µM): 0.902 | viability ([12]; 0.12 µM): 0.951 | viability ([12]; 0.6 µM): 0.886 | viability ([12]; 3 µM): 0.885 | viability ([12]; 15 µM): 0.954 | viability ([13]; 0.024 µM): 0.762 | viability ([13]; 0.12 µM): 0.764 | viability ([13]; 0.6 µM): 0.779 | viability ([13]; 3 µM): 0.797 | viability ([13]; 15 µM): 0.862 | viability ([14]; 0.024 µM): 1.01 | viability ([14]; 0.12 µM): 1.07 | viability ([14]; 0.6 µM): 1.07 | viability ([14]; 3 µM): 1.05 | viability ([14]; 15 µM): 1.01 | viability ([15]; 0.024 µM): 0.909 | viability ([15]; 0.12 µM): 0.939 | viability ([15]; 0.6 µM): 0.887 | viability ([15]; 3 µM): 0.878 | viability ([15]; 15 µM): 0.887 | viability ([16]; 0.024 µM): 0.89 | viability ([16]; 0.12 µM): 0.939 | viability ([16]; 0.6 µM): 0.915 | viability ([16]; 3 µM): 0.933 | viability ([16]; 15 µM): 1.07 | viability ([17]; 0.024 µM): 0.893 | viability ([17]; 0.12 µM): 0.888 | viability ([17]; 0.6 µM): 0.886 | viability ([17]; 3 µM): 0.858 | viability ([17]; 15 µM): 0.808

O=C(Nc1cccc(C(F)(F)F)c1)Nc1cc(S(=O)(=O)NC2CC2)ccc1-c1ccsc1 [AGI-6780]
viability ([1]; 0.024 µM): 0.913 | viability ([1]; 0.12 µM): 0.898 | viability ([1]; 0.6 µM): 0.856 | viability ([1]; 3 µM): 0.868 | viability ([1]; 15 µM): 0.806 | viability ([2]; 0.024 µM): 0.76 | viability ([2]; 0.12 µM): 0.761 | viability ([2]; 0.6 µM): 0.802 | viability ([2]; 3 µM): 0.778 | viability ([2]; 15 µM): 0.666 | viability ([3]; 0.024 µM): 0.912 | viability ([3]; 0.12 µM): 0.919 | viability ([3]; 0.6 µM): 0.874 | viability ([3]; 3 µM): 0.859 | viability ([3]; 15 µM): 0.85 | viability ([5]; 0.024 µM): 0.776 | viability ([5]; 0.12 µM): 0.947 | viability ([5]; 0.6 µM): 0.954 | viability ([5]; 3 µM): 0.851 | viability ([5]; 15 µM): 0.981 | viability ([6]; 0.024 µM): 0.865 | viability ([6]; 0.12 µM): 0.979 | viability ([6]; 0.6 µM): 0.937 | viability ([6]; 3 µM): 0.863 | viability ([6]; 15 µM): 0.825 | viability ([7]; 0.024 µM): 0.807 | viability ([7]; 0.12 µM): 0.796 | viability ([7]; 0.6 µM): 0.875 | viability ([7]; 3 µM): 0.834 | viability ([7]; 15 µM): 0.749 | viability ([8]; 0.024 µM): 0.891 | viability ([8]; 0.12 µM): 0.944 | viability ([8]; 0.6 µM): 0.923 | viability ([8]; 3 µM): 0.906 | viability ([8]; 15 µM): 0.798 | viability ([9]; 0.024 µM): 0.963 | viability ([9]; 0.12 µM): 1 | viability ([9]; 0.6 µM): 0.991 | viability ([9]; 3 µM): 0.886 | viability ([9]; 15 µM): 0.91 | viability ([10]; 0.024 µM): 0.829 | viability ([10]; 0.12 µM): 0.956 | viability ([10]; 0.6 µM): 0.878 | viability ([10]; 3 µM): 0.756 | viability ([10]; 15 µM): 0.841 | viability ([11]; 0.024 µM): 0.935 | viability ([11]; 0.12 µM): 0.969 | viability ([11]; 0.6 µM): 0.96 | viability ([11]; 3 µM): 0.843 | viability ([11]; 15 µM): 0.982 | viability ([12]; 0.024 µM): 0.94 | viability ([12]; 0.12 µM): 1.01 | viability ([12]; 0.6 µM): 1.02 | viability ([12]; 3 µM): 0.974 | viability ([12]; 15 µM): 0.993 | viability ([13]; 0.024 µM): 0.408 | viability ([13]; 0.12 µM): 0.417 | viability ([13]; 0.6 µM): 0.322 | viability ([13]; 3 µM): 0.258 | viability ([13]; 15 µM): 0.205 | viability ([16]; 0.024 µM): 0.796 | viability ([16]; 0.12 µM): 0.96 | viability ([16]; 0.6 µM): 0.91 | viability ([16]; 3 µM): 0.905 | viability ([16]; 15 µM): 0.983 | viability ([17]; 0.024 µM): 0.881 | viability ([17]; 0.12 µM): 0.894 | viability ([17]; 0.6 µM): 0.878 | viability ([17]; 3 µM): 0.891 | viability ([17]; 15 µM): 0.676
